From patent publication US5852033A, “Methods of treatment using lamellarin-class alkaloids” (Pharma Mar, s.a., priority 1995, dated 1998)
≈ marks a conversion by molar mass, not a printed value. Like-named read-outs stand apart in the source and are kept apart here.

What was measured:
P-388/SCHABEL (MDR) = experiment: LAMELLARINS TOXICITY TO RESISTANT (MDR) TUMOR CELL LINE P-388/SCHABEL (MTT); format: cell-based; details: Mus musculus, P388, 72 h, read-out: ACTIVITY: IC50
Experimental: (§1) Sensitive and MDR cells were maintained, in logarithmic phase of growth, in Eagle's Minimum Essential Medium, with Earle's Balanced Salts, with non-essential amino acids, with 2.0 mM L-glutamine, without sodium bicarbonate (EMEM/neaa), supplemented with 5% Fetal Calf Serum (FCS), 10^-2 M sodium bicarbonate and 0.1 g/l penicillin G+0.1 g/l streptomycin sulfate.
(§2) In Vitro cell cytotoxicity was determined using the 3-[4,5-dimethylthiazol-2-yl]-2,5-dipheniltetrazolium bromide (MTT), from Sigma Ref:M-2128, for quantitative measurement of cell growth and viability. See, T. Mosmann, "Rapid Colorimetric Assay for Cellular Growth and Survival: Application to Proliferation and Cytotoxicity Assays," Journal of Immunological Methods, 65: 55-63 (1983).
(§3) The tumor cell lines employed have been: P-388 (ATCC CCL 46), suspension culture of a lymphoid neoplasm from a DBA/2 mouse and its corresponding MDR cell line P-388/SCHABEL; CHOB1 (ATCC CCL 16), monolayer culture of chinese hamster ovary and its corresponding MDR cell line CHOC5. See, Rauscher Ill, et al., "Characterization of Auromycin-Resistant Hamster Cell Mutants that Display a Multidrug Resistance Phenotype," Molecular Pharmacology, 38: 198-206 (1990).
(§4) This form of assay employs 96-well cell culture plates […]. Cells were seeded into wells at 1×10^3 cells per well in 100 μl aliquots of EMEM 5% FCS containing different concentrations of the corresponding lamellarins and other compounds (standards) to be tested. Two separate sets of cultures without drugs were seeded, one as control of growth to ensure that cells remained in exponential phase of growth, and another without cells as control of medium. All determinations were carried out in duplicate.
(§5) After three days of incubation at 37° C., 10% CO2 in a 98% humid atmosphere, 150 μg of MTT is added to each well in 50 μl aliquots of assay medium. Plates were incubated for an additional 4 hours and 100 μl aliquots of isopropanol were added to each well. The broad absorption spectrum for the isopropanol solution of this crystal is optimal at 570 nm. Optical density values were obtained with the help of a Dynatech microplate reader and the results of the assay were used to generate graphics from which IC50 was calculated; i.e., wherein the IC50 is the test concentration which produces 50% cell growth inhibition.

CHOB1 = experiment: LAMELLARINS TOXICITY TO SENSITIVE TUMOR CELL LINE CHOB1 (MTT); format: cell-based, chinese hamster; details: Cricetulus griseus, 72 h, read-out: ACTIVITY: IC50
Experimental: as §1, §2, §3, §4, §5

P-388 = experiment: LAMELLARINS TOXICITY TO SENSITIVE TUMOR CELL LINE P-388 (MTT); format: cell-based; details: Mus musculus, P388, 72 h, read-out: ACTIVITY: IC50
Experimental: as §1, §2, §3, §4, §5

CHOC5 (MDR) = experiment: LAMELLARINS TOXICITY TO RESISTANT (MDR) TUMOR CELL LINE CHOC5 (MTT); format: cell-based, chinese hamster; details: Cricetulus griseus, 72 h, read-out: ACTIVITY: IC50
Experimental: as §1, §2, §3, §4, §5

MLR = experiment: Immunomodulatory activity (LcV:MLR); format: cell-based; details: in words
[1] = test system: P388 Lymphocytic Leukemia; experiment: In vivo anti-tumor activity vs P388 lymphocytic leukemia; set-up: species or system mouse; details: total 75.000 mg/kg, QD 1-5, ip
HT-29 = experiment: Lamellarin in vitro activity vs. tumor cell lines, HT-29; format: cell-based; details: Homo sapiens; HT-29, Table IV
A549 = experiment: Lamellarin in vitro activity vs. tumor cell lines, A549; details: for IC50: Homo sapiens; for in vitro antitumor activities: compared with lamellarins I, K and L, particularly A549 cells
P388 = experiment: Lamellarin in vitro activity vs. tumor cell lines, P388; details: Mus musculus
MEL-28 = experiment: Lamellarin in vitro activity vs. tumor cell lines, MEL-28; format: cell-based; details: Homo sapiens, SK-MEL-28; MEL-28, Table IV
[2] = P-388/SCHABEL (MDR), MTT, three days
[3] = CHOB1, sensitive, MTT, three days
[4] = P-388, sensitive, MTT, three days
[5] = A549, read-out: cytotoxicity IC50
[6] = P388, read-out: cytotoxicity IC50

Row | Structure (SMILES) | IC50 (P-388/SCHABEL (MDR); [2]) [µg/mL] | IC50 (CHOB1; [3]) [µg/mL] | IC50 (P-388; [4]) [µg/mL] | IC50 (CHOC5 (MDR); CHOC5 (MDR), MTT, three days) [µg/mL] | IC50 (HT-29) [µg/mL] | IC50 (A549; A549) [µg/mL] | IC50 (P388; P388) [µg/mL] | further results
1 | COc1cc(-c2c3n(c4c(=O)oc5cc(OC(C)=O)c(OC)cc5c24)CCc2c-3cc(OC)c(OC)c2OC(C)=O)ccc1OC(C)=O [Lamellarin K-triacetate] | 0.1 (≈ 0.152 µM) | 0.1 (≈ 0.152 µM) | 0.06 (≈ 0.0912 µM) | 0.1 (≈ 0.152 µM) | – | – | – | –
2 | COc1cc(-c2c3n(c4c(=O)oc5cc(O)c(OC)cc5c24)CCc2c-3cc(OC)c(OC)c2O)ccc1O [Lamellarin K] | 0.1 (≈ 0.188 µM) | 0.1 (≈ 0.188 µM) | 0.1 (≈ 0.188 µM) | 0.4 (≈ 0.753 µM) | 1 (≈ 1.88 µM) | 0.25 (≈ 0.47 µM) | 0.25 (≈ 0.47 µM) | immunomodulatory activity (MLR): moderate immunomodulatory activity; % T/C [1]: > 135.0%; Body Weight Change Day 5 [1]: 1.2 gm; Body Weight Day 5 [1]: 20.7 ± 0.5 gm; Mean Survival Time [1]: 28.3 ± 5.9; Body Weight Day 0 ([1]; baseline): 19.5 ± 0.5 gm; IC50 (A549; [5]): ~0.25 µg/mL (≈ 0.47 µM); IC50 (P388; [6]): ~0.25 µg/mL (≈ 0.47 µM)
3 | COc1ccc(-c2c3n(c4c(=O)oc5cc(OC(C)=O)c(OC)cc5c24)CCc2cc(OC(C)=O)c(OC)cc2-3)cc1OC(C)=O [Lamellarin L-triacetate] | 1.5 (≈ 2.39 µM) | 1.5 (≈ 2.39 µM) | 1.5 (≈ 2.39 µM) | 1.5 (≈ 2.39 µM) | – | – | – | –
4 | COc1ccc(-c2c3n(c4c(=O)oc5cc(O)c(OC)cc5c24)CCc2cc(O)c(OC)cc2-3)cc1O [Lamellarin L] | 0.7 (≈ 1.4 µM) | 0.4 (≈ 0.798 µM) | 0.6 (≈ 1.2 µM) | 0.6 (≈ 1.2 µM) | 2 (≈ 3.99 µM) | 0.25 (≈ 0.499 µM) | 0.25 (≈ 0.499 µM) | immunomodulatory activity (MLR): moderate immunomodulatory activity; IC50 (A549; [5]): ~0.25 µg/mL (≈ 0.499 µM); IC50 (P388; [6]): ~0.25 µg/mL (≈ 0.499 µM)
5 | COc1cc(-c2c3c4cc(OC)c(OC(C)=O)cc4oc(=O)c3n3ccc4c(OC(C)=O)c(OC)c(OC)cc4c23)ccc1OC(C)=O [Lamellarin M-triacetate] | 0.7 (≈ 1.07 µM) | 0.5 (≈ 0.763 µM) | 0.6 (≈ 0.915 µM) | 2 (≈ 3.05 µM) | – | – | – | –
6 | COc1cc(-c2c3c4cc(OC)c(O)cc4oc(=O)c3n3ccc4c(O)c(OC)c(OC)cc4c23)ccc1O [Lamellarin M] | – | – | – | – | 0.5 (≈ 0.944 µM) | 0.025 (≈ 0.0472 µM) | 0.05 (≈ 0.0944 µM) | IC50 (P-388/SCHABEL (MDR)): 0.09 µg/mL (≈ 0.17 µM); in vitro antitumor activities (A549): significantly better, particularly against A549 cells, than the lamellarins I, K and L; IC50 (CHOB1): 0.04 µg/mL (≈ 0.0755 µM); IC50 (P-388): 0.08 µg/mL (≈ 0.151 µM); IC50 (CHOC5 (MDR)): 0.09 µg/mL (≈ 0.17 µM); IC50 (MEL-28): 0.5 µg/mL (≈ 0.944 µM)
7 | COc1ccc(-c2c3c4cc(OC)c(OC(C)=O)cc4oc(=O)c3n3ccc4cc(OC(C)=O)c(OC)cc4c23)cc1OC(C)=O [Lamellarin N-triacetate] | 0.2 (≈ 0.32 µM) | 0.06 (≈ 0.0959 µM) | 0.09 (≈ 0.144 µM) | 0.1 (≈ 0.16 µM) | 5 (≈ 7.99 µM) | 0.012 (≈ 0.0192 µM) | 0.1 (≈ 0.16 µM) | in vitro antitumor activities (A549): significantly better, particularly against A549 cells, than the lamellarins I, K and L; IC50 (MEL-28): 5 µg/mL (≈ 7.99 µM)
8 | C/C=C/C[C@@H](C)C(=O)[C@H]1C(=O)N[C@@H](C(C)C)C(=O)N(C)CC(=O)N(C)[C@@H](CC(C)C)C(=O)N[C@@H](C(C)C)C(=O)N(C)[C@@H](CC(C)C)C(=O)N[C@@H](C)C(=O)N[C@H](C)C(=O)N(C)[C@@H](CC(C)C)C(=O)N(C)[C@@H](CC(C)C)C(=O)N(C)[C@@H](C(C)C)C(=O)N1C [PSC833, reference compound] | 0.05 (≈ 0.0412 µM) | 0.04 (≈ 0.0329 µM) | 0.02 (≈ 0.0165 µM) | 0.1 (≈ 0.0823 µM) | – | – | – | –
9 | COc1ccc(CCN(C)CCCC(C#N)(c2ccc(OC)c(OC)c2)C(C)C)cc1OC (stereo not drawn) [Verapamil, reference compound] | 10 (≈ 22 µM) | 9 (≈ 19.8 µM) | 10 (≈ 22 µM) | 4 (≈ 8.8 µM) | – | – | – | –
